Measurements from US9456971B2, “Moisturizer and cosmetic agent containing same” (AJINOMOTO CO., INC., priority 2012, dated 2016).

Tests used:
Assay type in all cases: physicochemical
[1] = Evaluation of moisturizer: hygroscopicity; settings: A(%)=([2]−[1])/[1]×100; vacuum-dried sample allowed to absorb moisture at 65% RH, 25° C. for 14 days
Procedure: (§1) To study the hygroscopicity and water retention ability of moisturizers, the following experiment was performed.
Decanoyl proline sodium obtained in Synthetic Example 2, betaine (“aminocoat” manufactured by Asahi Kasei Corporation), sodium lactate (manufactured by Wako), sodium pyrrolidonecarboxylate (“AJIDEW” NL-50 manufactured by Ajinomoto Co., Inc.), glycerol (“concentrated glycerin” manufactured by Kao Corporation), and sorbitol (manufactured by Kao Corporation) were each dried under vacuum. The moisture level of the samples was measured by Karl Fischer moisture meter, the amount of water was determined, and the weight other than the moisture level was calculated ([1]). Thereafter, the samples were allowed to absorb moisture under the conditions of 65% RH, 25° C. for 14 days, and the weight was measured ([2]). Thereafter, the samples were dried under the conditions of 35% RH, 25° C. for 14 days, and the weight was measured ([3]).
• A(%)=([2]−[1])/[1]×100 was calculated and the samples were evaluated according to the following criteria. • ⊙: value of A is not less than 15% • ◯: value of A is not less than 12% and less than 15% • Δ: value of A is not less than 10% and less than 12% • ×: value of A is less than 10% [Water Retention Ability] • R(%)=[3]/[2]×100 was calculated and the samples were evaluated according to the following criteria. • ⊙: value of R is not less than 80% • ◯: value of R is not less than 60% and less than 80% • Δ: value of R is not less than 40% and less than 60% • ×: value of R is less than 40%

[2] = Evaluation of moisturizer: water retention ability; settings: R(%)=[3]/[2]×100; after moisture absorption, dried at 35% RH, 25° C. for 14 days
Procedure: as §1
Decanoyl proline sodium obtained in Synthetic Example 2, betaine (“aminocoat” manufactured by Asahi Kasei Corporation), sodium lactate (manufactured by Wako), sodium pyrrolidonecarboxylate (“AJIDEW” NL-50 manufactured by Ajinomoto Co., Inc.), glycerol (“concentrated glycerin” manufactured by Kao Corporation), and sorbitol (manufactured by Kao Corporation) were each dried under vacuum. The moisture level of the samples was measured by Karl Fischer moisture meter, the amount of water was determined, and the weight other than the moisture level was calculated ([1]). Thereafter, the samples were allowed to absorb moisture under the conditions of 65% RH, 25° C. for 14 days, and the weight was measured ([2]). Thereafter, the samples were dried under the conditions of 35% RH, 25° C. for 14 days, and the weight was measured ([3]). […]

[3] = Stability against decomposition (acceleration test, HPLC); settings: 30.0 wt % in water, 70° C. for 22 days
Procedure: Solutions of the compound of Synthetic Example 2 (decanoyl proline Na, 30.0 wt %) in water with or without addition of etidronate to 0.1 wt % were prepared, and they were subjected to an acceleration test at 70° C. for 22 days. The decomposition rate of the compound of Synthetic Example 2 in each composition was measured using HPLC (20A manufactured by Shimadzu Corporation).

CC(O)C(=O)[O-].[Na+] (stereo not drawn) [compound 2, sodium lactate]
hygroscopicity [1]: ⊙ (value of A is not less than 15%)

O=C1CCC(C(=O)[O-])N1.[Na+] (stereo not drawn) [compound 3, sodium pyrrolidonecarboxylate]
hygroscopicity [1]: ⊙ (value of A is not less than 15%)

OCC(O)CO [compound 4, glycerol]
hygroscopicity [1]: ⊙ (value of A is not less than 15%)

CCCCCCCCCC(=O)N1CCC[C@H]1C(=O)[O-].[Na+] [Example 1, decanoyl proline sodium salt]
hygroscopicity [1]: ⊙ (value of A is not less than 15%) | water retention ability [2]: ⊙ (value of R is not less than 80%) | decomposition rate of decanoyl proline Na ([3]; etidronate added to 0.1 wt %): 0.8% | decomposition rate of decanoyl proline Na ([3]; etidronate not added): 2.4%

C[N+](C)(C)CC(=O)O [compound 1, betaine]
hygroscopicity [1]: ⊙ (value of A is not less than 15%) | water retention ability [2]: Δ (value of R is not less than 40% and less than 60%)
